Data taken from PubChem BioAssay (NCI).
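Method: 48-hour compound exposure of cells in 96-well plates, five concentrations, linear interpolation of endpoints. The concentration for 50% growth inhibition is given as GI50. TGI: total growth inhibition.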

How the values were obtained:
Assay in all cases: DTP human tumour cell line panel, 48 h
SK-OV-3 ovarian = system: SK-OV-3 ovarian
HL-60(TB) leukemia = system: HL-60(TB) leukemia
HOP-62 NSCLC = system: HOP-62 NSCLC
UACC-257 melanoma = system: UACC-257 melanoma
M14 melanoma = system: M14 melanoma
SN12C renal = system: SN12C renal
MDA-MB-231 breast = system: MDA-MB-231 breast
NCI-H522 lung = system: NCI-H522 lung
HT29 colon = system: HT29 colon
SR leukemia = system: SR leukemia
A498 renal = system: A498 renal
MOLT-4 leukemia = system: MOLT-4 leukemia
TK-10 renal = system: TK-10 renal
PC-3 prostate = system: PC-3 prostate
SK-MEL-2 melanoma = system: SK-MEL-2 melanoma
786-0 renal = system: 786-0 renal
UACC-62 melanoma = system: UACC-62 melanoma
LOX IMVI melanoma = system: LOX IMVI melanoma
DU-145 prostate = system: DU-145 prostate
MDA-MB-435 = system: MDA-MB-435
RXF 393 renal = system: RXF 393 renal
MCF7 breast = system: MCF7 breast
SF-539 CNS = system: SF-539 CNS
K-562 leukemia = system: K-562 leukemia
MALME-3M melanoma = system: MALME-3M melanoma
NCI-H460 lung = system: NCI-H460 lung
HCC-2998 colon = system: HCC-2998 colon
HS 578T breast = system: HS 578T breast
SNB-75 CNS = system: SNB-75 CNS
NCI/ADR-RES ovarian = system: NCI/ADR-RES ovarian
HCT-116 colon = system: HCT-116 colon
OVCAR-3 ovarian = system: OVCAR-3 ovarian
BT-549 breast = system: BT-549 breast
SNB-19 CNS = system: SNB-19 CNS
SK-MEL-5 melanoma = system: SK-MEL-5 melanoma
EKVX NSCLC = system: EKVX NSCLC
OVCAR-8 ovarian = system: OVCAR-8 ovarian
SW-620 colon = system: SW-620 colon
COLO 205 colon = system: COLO 205 colon
CAKI-1 renal = system: CAKI-1 renal
HOP-92 NSCLC = system: HOP-92 NSCLC
SF-268 CNS = system: SF-268 CNS
NCI-H23 lung = system: NCI-H23 lung
OVCAR-4 ovarian = system: OVCAR-4 ovarian
RPMI-8226 leukemia = system: RPMI-8226 leukemia
UO-31 renal = system: UO-31 renal
HCT-15 colon = system: HCT-15 colon
CCRF-CEM leukemia = system: CCRF-CEM leukemia
A549 NSCLC = system: A549 NSCLC
SF-295 CNS = system: SF-295 CNS
U251 CNS = system: U251 CNS

SMILES: NC(=NCCCC1(c2ccccc2)CCCC1)Nc1ccc(Cl)cc1
- GI50 (SK-OV-3 ovarian): 2.43 µM
- TGI (SK-OV-3 ovarian): 5.59 µM
- GI50 (HL-60(TB) leukemia): 1.73 µM
- TGI (HL-60(TB) leukemia): 3.67 µM
- GI50 (HOP-62 NSCLC): 1.69 µM
- TGI (HOP-62 NSCLC): 3.36 µM
- GI50 (UACC-257 melanoma): 1.82 µM
- TGI (UACC-257 melanoma): 3.56 µM
- GI50 (M14 melanoma): 1.59 µM
- TGI (M14 melanoma): 3.27 µM
- GI50 (SN12C renal): 1.77 µM
- TGI (SN12C renal): 3.37 µM
- GI50 (MDA-MB-231 breast): 1.6 µM
- TGI (MDA-MB-231 breast): 3.14 µM
- GI50 (NCI-H522 lung): 1.68 µM
- TGI (NCI-H522 lung): 3.32 µM
- GI50 (HT29 colon): 1.72 µM
- TGI (HT29 colon): 3.17 µM
- GI50 (SR leukemia): 1.71 µM
- TGI (SR leukemia): 4.24 µM
- GI50 (A498 renal): 1.75 µM
- TGI (A498 renal): 3.29 µM
- GI50 (MOLT-4 leukemia): 1.58 µM
- TGI (MOLT-4 leukemia): 4.11 µM
- GI50 (TK-10 renal): 1.38 µM
- TGI (TK-10 renal): 2.75 µM
- GI50 (PC-3 prostate): 1.6 µM
- TGI (PC-3 prostate): 3.12 µM
- GI50 (SK-MEL-2 melanoma): 1.95 µM
- TGI (SK-MEL-2 melanoma): 3.52 µM
- GI50 (786-0 renal): 1.68 µM
- TGI (786-0 renal): 3.13 µM
- GI50 (UACC-62 melanoma): 1.68 µM
- TGI (UACC-62 melanoma): 3.2 µM
- GI50 (LOX IMVI melanoma): 1.58 µM
- TGI (LOX IMVI melanoma): 2.93 µM
- GI50 (DU-145 prostate): 1.8 µM
- TGI (DU-145 prostate): 3.29 µM
- GI50 (MDA-MB-435): 1.77 µM
- TGI (MDA-MB-435): 3.21 µM
- GI50 (RXF 393 renal): 1.47 µM
- TGI (RXF 393 renal): 2.88 µM
- GI50 (MCF7 breast): 1.65 µM
- TGI (MCF7 breast): 3.19 µM
- GI50 (SF-539 CNS): 1.75 µM
- TGI (SF-539 CNS): 3.23 µM
- GI50 (K-562 leukemia): 1.55 µM
- TGI (K-562 leukemia): 4.45 µM
- GI50 (MALME-3M melanoma): 1.69 µM
- TGI (MALME-3M melanoma): 3.66 µM
- GI50 (NCI-H460 lung): 1.69 µM
- TGI (NCI-H460 lung): 3.42 µM
- GI50 (HCC-2998 colon): 1.66 µM
- TGI (HCC-2998 colon): 3.08 µM
- GI50 (HS 578T breast): 2.19 µM
- TGI (HS 578T breast): 5.03 µM
- GI50 (SNB-75 CNS): 1.07 µM
- TGI (SNB-75 CNS): 2.31 µM
- GI50 (NCI/ADR-RES ovarian): 1.77 µM
- TGI (NCI/ADR-RES ovarian): 3.34 µM
- GI50 (HCT-116 colon): 1.44 µM
- TGI (HCT-116 colon): 2.86 µM
- GI50 (OVCAR-3 ovarian): 1.82 µM
- TGI (OVCAR-3 ovarian): 3.35 µM
- GI50 (BT-549 breast): 1.74 µM
- TGI (BT-549 breast): 3.27 µM
- GI50 (SNB-19 CNS): 1.81 µM
- TGI (SNB-19 CNS): 3.98 µM
- GI50 (SK-MEL-5 melanoma): 1.58 µM
- TGI (SK-MEL-5 melanoma): 2.93 µM
- GI50 (EKVX NSCLC): 1.87 µM
- TGI (EKVX NSCLC): 3.57 µM
- GI50 (OVCAR-8 ovarian): 1.9 µM
- TGI (OVCAR-8 ovarian): 3.8 µM
- GI50 (SW-620 colon): 1.85 µM
- TGI (SW-620 colon): 3.85 µM
- GI50 (COLO 205 colon): 1.69 µM
- TGI (COLO 205 colon): 3.44 µM
- GI50 (CAKI-1 renal): 1.93 µM
- TGI (CAKI-1 renal): 3.94 µM
- GI50 (HOP-92 NSCLC): 1.36 µM
- TGI (HOP-92 NSCLC): 2.85 µM
- GI50 (SF-268 CNS): 1.66 µM
- TGI (SF-268 CNS): 3.35 µM
- GI50 (NCI-H23 lung): 1.69 µM
- TGI (NCI-H23 lung): 3.35 µM
- GI50 (OVCAR-4 ovarian): 1.68 µM
- TGI (OVCAR-4 ovarian): 3.17 µM
- GI50 (RPMI-8226 leukemia): 1.89 µM
- TGI (RPMI-8226 leukemia): 4.08 µM
- GI50 (UO-31 renal): 1.5 µM
- TGI (UO-31 renal): 3 µM
- GI50 (HCT-15 colon): 1.75 µM
- TGI (HCT-15 colon): 3.29 µM
- GI50 (CCRF-CEM leukemia): 2.18 µM
- TGI (CCRF-CEM leukemia): 6.29 µM
- GI50 (A549 NSCLC): 1.89 µM
- TGI (A549 NSCLC): 3.61 µM
- GI50 (SF-295 CNS): 1.62 µM
- TGI (SF-295 CNS): 3.06 µM
- GI50 (U251 CNS): 1.69 µM
- TGI (U251 CNS): 3.11 µM
